Laboratory results as given in PubChem BioAssay (NCI).
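All cell lines were grown in 96-well plates and treated with compound for 48 hours. Definition used: TGI = concentration required for complete inhibition of growth.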

Each compound was assayed on OVCAR-3 ovarian (assay: growth of human tumour cells (NCI), 48 h).

Question: With CN(Cc1cnc2nc(N)nc(N)c2n1)c1ccc(C(=O)NCCS(=O)(=O)O)cc1 as the compound, how does the TGI read?
Answer: > 100 µM

Question: O=C1NC(N/N=C/c2ccccc2)=N/C1=C\c1ccco1 was tested. Which TGI did it give?
Answer: > 100 µM

Question: How did the TGI turn out when O=C(C1OC1c1ccc(Cl)cc1)C12CC3CC(CC(C3)C1)C2 (centres undefined) was run?
Answer: 30 µM

Question: Which TGI does the source give for O=[N+]([O-])c1cccc2nc3ccccc3c(NCCCCNc3c4ccccc4nc4cccc([N+](=O)[O-])c34)c12 here?
Answer: 0.231 µM

Question: With NC(=O)c1ccc(C(=O)Nc2ccc([As](=O)(O)O)cc2)cc1 as the compound, how does the TGI read?
Answer: > 100 µM

Question: O=C1NC(N/N=C/C(O)C(O)C(O)C(O)CO)=N/C1=C\c1ccco1 (centres undefined) was tested. Which TGI did it give?
Answer: > 100 µM

Question: How did the TGI turn out when C=C(C)[C@@H]1CCC2=C[C@@H](OC2=O)[C@@H](C(=C)C)C2=CC(C(=O)O)=C(C1)O2 was run?
Answer: > 100 µM

Question: For CC1OC(OC2C(O[C@H]3CC[C@@H]4C(=CC[C@@H]5[C@@]4(C)C(=O)C[C@]4(C)[C@@H]([C@H](C)CC[C@@H](O)C(C)(C)O)CC[C@@]54C)C3(C)C)OC(CO)C(O)C2O)C(O)C(O)C1O (some centres undefined), which TGI is on record?
Answer: > 100 µM

Question: How did the TGI turn out when c1ccc(C(C2=Nc3cccc4cccc(c34)N2)c2ccccc2)cc1 was run?
Answer: 41.5 µM

Question: How did the TGI turn out when CC1=CC(=O)[C@@H](O)[C@]2(C)[C@H]3[C@@]4(O)OC[C@]35[C@H]([C@@H](C)[C@H]4O)[C@@H](OC(=O)C(C)(C)CO)C(=O)O[C@@H]5C[C@@H]12 was run?
Answer: 1.92 µM

Each compound was assayed on UO-31 renal (assay: growth of human tumour cells (NCI), 48 h).

Question: With CN(Cc1cnc2nc(N)nc(N)c2n1)c1ccc(C(=O)NCCS(=O)(=O)O)cc1 as the compound, how does the TGI read?
Answer: > 100 µM

Question: O=C1NC(N/N=C/c2ccccc2)=N/C1=C\c1ccco1 was tested. Which TGI did it give?
Answer: 86 µM

Question: For O=C(C1OC1c1ccc(Cl)cc1)C12CC3CC(CC(C3)C1)C2 (centres undefined), which TGI is on record?
Answer: 41.9 µM

Question: With O=[N+]([O-])c1cccc2nc3ccccc3c(NCCCCNc3c4ccccc4nc4cccc([N+](=O)[O-])c34)c12 as the compound, how does the TGI read?
Answer: 0.398 µM

Question: NC(=O)c1ccc(C(=O)Nc2ccc([As](=O)(O)O)cc2)cc1 was tested. Which TGI did it give?
Answer: > 100 µM

Question: For C=C(C)[C@@H]1CCC2=C[C@@H](OC2=O)[C@@H](C(=C)C)C2=CC(C(=O)O)=C(C1)O2, which TGI is on record?
Answer: > 100 µM

Question: How did the TGI turn out when CC1OC(OC2C(O[C@H]3CC[C@@H]4C(=CC[C@@H]5[C@@]4(C)C(=O)C[C@]4(C)[C@@H]([C@H](C)CC[C@@H](O)C(C)(C)O)CC[C@@]54C)C3(C)C)OC(CO)C(O)C2O)C(O)C(O)C1O (some centres undefined) was run?
Answer: > 100 µM

Question: With c1ccc(C(C2=Nc3cccc4cccc(c34)N2)c2ccccc2)cc1 as the compound, how does the TGI read?
Answer: 51.2 µM

Question: With CC1=CC(=O)[C@@H](O)[C@]2(C)[C@H]3[C@@]4(O)OC[C@]35[C@H]([C@@H](C)[C@H]4O)[C@@H](OC(=O)C(C)(C)CO)C(=O)O[C@@H]5C[C@@H]12 as the compound, how does the TGI read?
Answer: 2.44 µM

What follows are compounds tested on SK-MEL-5 melanoma (assay: growth of human tumour cells (NCI), 48 h).

Question: For CN(Cc1cnc2nc(N)nc(N)c2n1)c1ccc(C(=O)NCCS(=O)(=O)O)cc1, which TGI is on record?
Answer: > 100 µM

Question: Which TGI does the source give for O=C1NC(N/N=C/c2ccccc2)=N/C1=C\c1ccco1 here?
Answer: > 100 µM

Question: How did the TGI turn out when O=C(C1OC1c1ccc(Cl)cc1)C12CC3CC(CC(C3)C1)C2 (centres undefined) was run?
Answer: 28.6 µM

Question: Which TGI does the source give for O=[N+]([O-])c1cccc2nc3ccccc3c(NCCCCNc3c4ccccc4nc4cccc([N+](=O)[O-])c34)c12 here?
Answer: 0.165 µM

Question: How did the TGI turn out when NC(=O)c1ccc(C(=O)Nc2ccc([As](=O)(O)O)cc2)cc1 was run?
Answer: > 100 µM

Question: For O=C1NC(N/N=C/C(O)C(O)C(O)C(O)CO)=N/C1=C\c1ccco1 (centres undefined), which TGI is on record?
Answer: > 100 µM

Question: With C=C(C)[C@@H]1CCC2=C[C@@H](OC2=O)[C@@H](C(=C)C)C2=CC(C(=O)O)=C(C1)O2 as the compound, how does the TGI read?
Answer: > 100 µM

Question: How did the TGI turn out when CC1OC(OC2C(O[C@H]3CC[C@@H]4C(=CC[C@@H]5[C@@]4(C)C(=O)C[C@]4(C)[C@@H]([C@H](C)CC[C@@H](O)C(C)(C)O)CC[C@@]54C)C3(C)C)OC(CO)C(O)C2O)C(O)C(O)C1O (some centres undefined) was run?
Answer: > 100 µM

Question: With c1ccc(C(C2=Nc3cccc4cccc(c34)N2)c2ccccc2)cc1 as the compound, how does the TGI read?
Answer: 38.2 µM

Question: How did the TGI turn out when CC1=CC(=O)[C@@H](O)[C@]2(C)[C@H]3[C@@]4(O)OC[C@]35[C@H]([C@@H](C)[C@H]4O)[C@@H](OC(=O)C(C)(C)CO)C(=O)O[C@@H]5C[C@@H]12 was run?
Answer: 0.187 µM

The compounds below were run on U251 CNS (assay: growth of human tumour cells (NCI), 48 h).

Question: For CN(Cc1cnc2nc(N)nc(N)c2n1)c1ccc(C(=O)NCCS(=O)(=O)O)cc1, which TGI is on record?
Answer: > 100 µM

Question: For O=C1NC(N/N=C/c2ccccc2)=N/C1=C\c1ccco1, which TGI is on record?
Answer: 68.4 µM

Question: For O=C(C1OC1c1ccc(Cl)cc1)C12CC3CC(CC(C3)C1)C2 (centres undefined), which TGI is on record?
Answer: 29.2 µM

Question: How did the TGI turn out when O=[N+]([O-])c1cccc2nc3ccccc3c(NCCCCNc3c4ccccc4nc4cccc([N+](=O)[O-])c34)c12 was run?
Answer: 0.187 µM

Question: With NC(=O)c1ccc(C(=O)Nc2ccc([As](=O)(O)O)cc2)cc1 as the compound, how does the TGI read?
Answer: > 100 µM

Question: For O=C1NC(N/N=C/C(O)C(O)C(O)C(O)CO)=N/C1=C\c1ccco1 (centres undefined), which TGI is on record?
Answer: > 100 µM

Question: How did the TGI turn out when CC1OC(OC2C(O[C@H]3CC[C@@H]4C(=CC[C@@H]5[C@@]4(C)C(=O)C[C@]4(C)[C@@H]([C@H](C)CC[C@@H](O)C(C)(C)O)CC[C@@]54C)C3(C)C)OC(CO)C(O)C2O)C(O)C(O)C1O (some centres undefined) was run?
Answer: > 100 µM

Question: For c1ccc(C(C2=Nc3cccc4cccc(c34)N2)c2ccccc2)cc1, which TGI is on record?
Answer: 35.3 µM

Each compound was assayed on HOP-92 NSCLC (assay: growth of human tumour cells (NCI), 48 h).

Question: O=C1NC(N/N=C/c2ccccc2)=N/C1=C\c1ccco1 was tested. Which TGI did it give?
Answer: 37.3 µM

Question: Which TGI does the source give for O=C(C1OC1c1ccc(Cl)cc1)C12CC3CC(CC(C3)C1)C2 (centres undefined) here?
Answer: 39 µM

Question: For O=[N+]([O-])c1cccc2nc3ccccc3c(NCCCCNc3c4ccccc4nc4cccc([N+](=O)[O-])c34)c12, which TGI is on record?
Answer: 0.0854 µM

Question: For NC(=O)c1ccc(C(=O)Nc2ccc([As](=O)(O)O)cc2)cc1, which TGI is on record?
Answer: > 100 µM

Question: How did the TGI turn out when O=C1NC(N/N=C/C(O)C(O)C(O)C(O)CO)=N/C1=C\c1ccco1 (centres undefined) was run?
Answer: > 100 µM

Question: Which TGI does the source give for C=C(C)[C@@H]1CCC2=C[C@@H](OC2=O)[C@@H](C(=C)C)C2=CC(C(=O)O)=C(C1)O2 here?
Answer: > 100 µM

Question: With CC1OC(OC2C(O[C@H]3CC[C@@H]4C(=CC[C@@H]5[C@@]4(C)C(=O)C[C@]4(C)[C@@H]([C@H](C)CC[C@@H](O)C(C)(C)O)CC[C@@]54C)C3(C)C)OC(CO)C(O)C2O)C(O)C(O)C1O (some centres undefined) as the compound, how does the TGI read?
Answer: > 100 µM
